Assay results reported in patent publication US20100137344A1, “INDUCTION OF ANALGESIA IN NEUROPATHIC PAIN” (University Court of the University of Edinburgh, priority 2006, published 2010).

Legend:
Assay type in all cases: in vivo, rat
[1] = tested on: rats sensitised by the TRPA1 activator cinnamaldehyde; test: Cinnamaldehyde-induced sensitisation and its reversal by icilin (PWL, PWT); details: difference from prior baseline, no icilin
Method: (§1) Thermal sensitivity was assessed by measuring paw withdrawal latency (PWL, s) in response to a noxious thermal stimulus (Hargreaves' thermal stimulator, Linton Instrumentation, Diss, UK) directed to the hindpaw mid-plantar glabrous surface. Mechanical sensitivity was recorded as the paw withdrawal threshold (PWT, mN/mm^2) to calibrated von Frey filaments (Stoelting, Ill., US), as previously described^[39]. Sensitivity to noxious cold was assessed by placing animals in a waterbath with an aluminium floor containing 1 cm deep 4° C. water and counting the time the paw was held suspended over a 20 s period.
(§2) The following drugs were applied intrathecally in a 50 μl volume of saline-based vehicle at 37° C.: icilin (2.5-200 μM in saline with 0.2% dimethylformamide, DMF), LY 341495 (100 μM in saline), UBP 1112 (200 μM in saline), 2R,4R-APDC ((2R, 4R)-4-aminopyrrolidine-2,4-dicarboxylate), 300 μM in saline), ACPT-III ((1R,3R,4S)-1-aminocyclopentane-1,3,4-tricarboxylic acid), 3 mM in saline), AP-4, ((L-(1)-2-amino-4-phosphonobutyric acid), 3 mM in saline), naloxone (0.5 mM in saline), NMDA (75 μM in saline) and ACPC (1-aminocyclopropanecarboxylic acid, 15 μM in saline) (Tocris Cookson, Bristol, UK), (−)-menthol (1R,2S,5R-(−)-menthol, 4 mM in saline), cinnamaldehyde (1.5 mM in saline) and Ruthenium Red (5 μM in saline) (Sigma-Aldrich Co. Ltd, UK) and allicin (0.5 mM in saline with 0.5% DMF) and diallyl disulphide (DADS, 1 mM in saline with 0.5% DMF) (LKT Laboratories Inc., St Paul, Minn., USA). Drugs were injected into the L5/6 intrathecal space under brief halothane anaesthesia, using a 25-gauge needle microsyringe (BD Biosciences, Oxford, UK), as described previously^[39] in animals that were at peak levels of behavioural sensitisation. Behavioural reflex testing commenced 15 min following injection to allow recovery from anaesthesia^[40,41,42] and continued every 5 min thereafter until readings returned to baseline levels (n=6 in each case). We, and others^[40,41,42] find complete recovery from anaesthetic by 15 minutes. All appropriate controls were carried out to eliminate the possibility of effects due to vehicle or to injection procedure.
(§3) The TRPM8 channel activators, icilin and (−)-menthol were tested in CCI and naïve animals. The effects of icilin were additionally assessed in animals with CFA-induced inflammation or with lysolecithin-induced demyelination. Icilin was also co-administered with the μ-opioid receptor antagonist naloxone, the Group II metabotropic glutamate receptor (mGluR) antagonist, LY 341495, or the Group III mGluR antagonist, UBP 1112. The effects of these antagonists alone as well as effects of the Group II mGluR agonist, 2R,4R-APDC and the Group III mGluR agonists, ACPT-III and AP-4, were assessed in CCI animals. The TRPA1 channel activator, cinnamaldehyde, alone and with icilin, was tested in CCI animals and in naïve animals. Further TRPA1 channel activators, allicin and diallyl disulphide were assessed in naïve animals. Both icilin and cinnamaldehyde effects in CCI animals were also investigated in the additional presence of Ruthenium Red.
Icilin was applied at concentrations of 2.5-500 μM (in water with 0.2% DMF), by placing CCI or naïve rats unrestrained for 5 min in a 1 cm deep waterbath (sufficient to cover paws), which was thermostatically controlled to a temperature of 30° C., or by very lightly anaesthetising rats and immersing hindpaws in small tubes containing 5 ml icilin (500 μM-5 mM, with a vehicle of 45% dimethylformamide in 0.2% aqueous Tween 80) for 5 min, followed by sensory testing for 60-80 mins. The effects of (−)-menthol and its stereoisomers isomenthol (1S,2R,5R-menthol,) and (+)-menthol (1S,2R,5S(+)-menthol) (4-16 mM in 80% ethanol) were also assessed. Relevant vehicles were always assessed in similar experiments. As a contrast, the effect of cinnamaldehyde (1.5 mM in water) and the effect of cinnamaldehyde with additional icilin (80 μM in water with 0.2% DMF) were assessed in naïve animals. […]

naïve rats [2] = test: Intrathecal application in naïve rats, behavioural reflex testing (PWL, PWT); details: naïve animals, cinnamaldehyde 75 nmol, allicin 25 nmol
Method: as §1, §2, §3

[3] = tested on: rats with chronic constriction injury (CCI) to sciatic nerve; test: Intrathecal application in CCI rats, behavioural reflex testing (PWL, PWT); details: for mean percentage reversal of sensitisation by (−)-menthol with antagonist, PWL / mean percentage reversal of sensitisation by (−)-menthol with antagonist, PWT: (−)-menthol 200 nmol plus intrathecal antagonist, 20-30 minutes post-injection; for effect on analgesia by intrathecal icilin: LY 341495 5 nmol, UBP 1112 10 nmol co-administered with icilin 10 nmol; for effect of antagonist alone: intrathecal, data not shown
Method: Pain models were generated under halothane anaesthesia (Zeneca, Cheshire, UK). For the chronic constriction injury (CCI) model of neuropathic pain, four ligatures were tied loosely to constrict the sciatic nerve at mid-thigh level (as described previously^[39]). An inflammatory pain model was generated by injecting 100 μl of Complete Freund's Adjuvant (CFA, Sigma-Aldrich Ltd) into the ventral surface of the right hindpaw^[39]. A model of peripheral demyelination-induced pain was produced by focal application of lysolecithin to the sciatic nerve^[40]. Peak behavioural sensitisation was observed post-surgically between days 10-16 for CCI, 1-3 for CFA, and 7-14 for lysolecithin, when pharmacological and electrophysiological experiments and tissue removal were conducted.
as §1, §2, §3

naïve rats [4] = test: Topical application to paws of naïve rats, behavioural reflex testing (PWL, PWT); details: topical cinnamaldehyde 1.5 mM; bilateral
Method: as §1
(§4) Icilin was applied at concentrations of 2.5-500 μM (in water with 0.2% DMF), by placing CCI or naïve rats unrestrained for 5 min in a 1 cm deep waterbath (sufficient to cover paws), which was thermostatically controlled to a temperature of 30° C., or by very lightly anaesthetising rats and immersing hindpaws in small tubes containing 5 ml icilin (500 μM-5 mM, with a vehicle of 45% dimethylformamide in 0.2% aqueous Tween 80) for 5 min, followed by sensory testing for 60-80 mins. The effects of (−)-menthol and its stereoisomers isomenthol (1S,2R,5R-menthol,) and (+)-menthol (1S,2R,5S(+)-menthol) (4-16 mM in 80% ethanol) were also assessed. Relevant vehicles were always assessed in similar experiments. As a contrast, the effect of cinnamaldehyde (1.5 mM in water) and the effect of cinnamaldehyde with additional icilin (80 μM in water with 0.2% DMF) were assessed in naïve animals. The effects of icilin (80 μM) were further assessed in CCI animals that had undergone antisense and mis-sense treatment for knockdown of TRPM8 or immediately following intrathecal injection of either LY 341495 or UBP 1112. […] The effects of brief paw immersion at different temperatures (10-22° C. for 5 min) on CCI rats were assessed by mechanical testing. The effects of intrathecal LY 341495 or UBP 1112 on the reversal of ipsilateral sensitisation in CCI following a 16° C. cool challenge for 5 min were measured. Reflex testing commenced 5 minutes following challenge, unless animals had been anaesthetised, in which case 15 minutes was allowed for recovery. Six replicate animals were tested in all pharmacological experiments.

[5] = tested on: rats with chronic constriction injury (CCI) to sciatic nerve; test: Topical application to paws of CCI rats, behavioural reflex testing (thermal PWL, mechanical PWT); details: icilin 200 μM topical; mGluR antagonists intrathecally
[6] = tested on: rats with chronic constriction injury (CCI); test: Cooling (16° C.)-induced analgesia in CCI rats with intrathecal mGluR antagonists; details: skin cooling to 16° C.; intrathecal LY 341495 5 nmol or UBP 1112 10 nmol
Method: as §4, with “Reflex testing commenced 5 minutes following challenge, unless animals had been anaesthetised, in which case 15 minutes was allowed for recovery. Six replicate animals were tested in all pharmacological experiments.” left out

dorsal horn neurons = test: Extracellular recordings of single spinal dorsal horn neurons in CCI animals (brush-evoked firing)
Method: Peripheral: Recordings of saphenous (sensory) nerve were made in naïve animals (n=7) to assess the effects of topical icilin on primary afferents. In addition, recordings were carried out on animals which had undergone TRPM8 antisense or mis-sense treatment beginning 4-5 days previously. Rats were anaesthetised (with 0.6 ml 25% urethane/100 g, i.p.) and the saphenous nerve was exposed and dissected from its associated vein and artery. Further dissection under liquid paraffin enabled identification of afferent preparations comprising a small number of fibres. The conduction velocity of single identified afferent fibres was determined using bipolar electrodes and the peripheral stimulus technique^[43]. Following isolation of preparations, icilin (200 μM in water with 0.2% DMF), (−)-menthol (4 mM in 25% ethanol) resiniferatoxin (1 mM in ethanol) or vehicle alone were applied to the hindlimb receptive fields and neuronal responses recorded using the Chart programme (version 3.6). Central: Recordings of spinal dorsal horn neurons were made in CCI animals, as described previously^[39]. Following halothane induction, the jugular vein and trachea were canulated and intravenous anaesthetic delivered: α-chloralose ([…], Fisher) and urethane ([…], Sigma), with small supplementary doses of α-chloralose as required throughout the experiment. Core body temperature was maintained at 37-38° C. by means of a thermostatically controlled heated blanket. The animal was placed in a stereotaxic frame, and the thoracolumbar spinal column was supported using three pairs of swan-necked clamps. A laminectomy was performed at L2-L5, and agar (2% in saline at 37° C.) was delivered over exposed cord to increase mechanical stability. Above the recording region the agar and spinal cord dura were removed and liquid paraffin poured into the pool. Extracellular recordings were made from single multireceptive neurons in laminae I-IV through the centre barrel of a seven-barrelled glass microelectrode filled with 4M NaCl (tip-diameter […], DC resistance 5-8 MΩ). The receptive fields of hair-follicle innervated neurons on the distal hindlimb were identified by an innocuous brush stimulus^[39]. Icilin (200 μM in water with 0.2% DMF) was applied peripherally to the receptive field of individual recorded neurons, and the effect on neuronal response to a rotating brush was recorded and analysed using Spike2 programme (Version 3.2, CED). The Group III mGluR antagonist UBP 1112 (20 mM in water), pH 8.5, and control 1M NaCl, pH 8.5 were ionophoresed from the side barrels of the electrode using currents of between 20 nA and 80 nA (Neurophore BH2 ionophoresis system, Medical Systems, Great Neck, N.Y.) to measure effects on neuronal response to icilin.

## O=CC=Cc1ccccc1 [cinnamaldehyde]
[1]; cinnamaldehyde intrathecal
  PWL (s) difference from control (no drug): 5.9 ± 0.9 s
  PWT (mN/mm^2) difference from control (no drug): 2022.6 ± 375.4 mN/mm^2
[1]; cinnamaldehyde topical
  PWL (s) difference from control (no drug): 5.0 ± 1.5 s
  PWT (mN/mm^2) difference from control (no drug): 1002.0 ± 316.8 mN/mm^2
naïve rats [2]; diallyl disulphide 50 mmol
  reduction in PWL: 36.9±7.9%
  reduction in PWT: 41.9±6.7%
[3]; cinnamaldehyde 75 nmol intrathecal, contralateral as well as ipsilateral to nerve injury
  reflex responsiveness in thermal and mechanical tests: significantly increased reflex responsiveness
naïve rats [4]
  mean decrease in PWL: 32.0±8.6%
  mean decrease in PWT: 20.2±8.2%

## N[C@](CC1c2ccccc2Oc2ccccc21)(C(=O)O)[C@H]1C[C@@H]1C(=O)O [LY 341495]
[5]
  effect on reversal of thermal and mechanical sensitisation by topical icilin: prevented
[3]
  mean percentage reversal of sensitisation by (−)-menthol with antagonist, PWL: 22.0±6.9%
  mean percentage reversal of sensitisation by (−)-menthol with antagonist, PWT: 7.1±7.1%
  effect on analgesia by intrathecal icilin: prevented the effect of icilin
  effect of antagonist alone: Neither LY 341495 nor UBP 1112 had any effects alone
[6]
  mean percentage reversal of ipsilateral CCI-induced reductions in PWT caused by cooling: 0.0±0.0%

## Cc1cc(C(C)(N)C(=O)O)ccc1P(=O)(O)O (stereo not shown) [UBP 1112]
[5]
  effect on reversal of thermal and mechanical sensitisation by topical icilin: prevented
[3]
  mean percentage reversal of sensitisation by (−)-menthol with antagonist, PWL: 9.2±6.9%
  mean percentage reversal of sensitisation by (−)-menthol with antagonist, PWT: 0.0±0.0%
  effect on analgesia by intrathecal icilin: prevented the effect of icilin
  effect of antagonist alone: Neither LY 341495 nor UBP 1112 had any effects alone
Dorsal horn neurons; UBP 1112 ionophoresed at 20-60 nA, icilin 200 μM topical
  brush-induced firing rate with icilin plus UBP 1112: 80.2±9.3 % of control values
Dorsal horn neurons; ionophoresis
  effect of UBP 1112 alone on neuronal responses: had no effect alone
[6]
  mean percentage reversal of ipsilateral CCI-induced reductions in PWT caused by cooling: 0.0±0.0%

## C=CCSSCC=C [diallyl disulphide]
naïve rats [2]; diallyl disulphide
  reduction in PWL: 25.9±7.0%
naïve rats [2]; diallyl disulphide 50 mmol
  reduction in PWT: 28.5±6.2%
